Patent publication US20200338229A1, “ANTIMICROBIAL ADHESIVE DRESSINGS” (priority 2015, published 2020)
Like-named read-outs stand apart in the source and are kept apart here.

How the values were obtained:
[1] = cited from earlier work
[2] = in the silicone adhesive of this invention
[3] = in the presence of light; cited from earlier work

Polyhexamethylene biguanide [PHMB]
solubility ([1]; in oils and hydrocarbons and silicone elastomers): not soluble
solubility ([1]; in water, alcohols and glycols): soluble
stability to autoclaving ([2]; autoclaving at 121° C.): stable
stability to curing temperature ([2]; curing temperature of 140° C.): stable
pH range of stability [3]: 4-10 pH
temperature up to which stable [3]: up to 80 °C
